Test results from US20110105393A1, “METHODS FOR PROMOTING STEM CELL PROLIFERATION AND SURVIVAL” (priority 2007, published 2011).

Legend:
TH+ dopaminergic neurons = assay: Tyrosine hydroxylase immunohistochemistry in striatum and substantia nigra, 6OHDA model; format: in vivo, rat; details: % ipsi- vs. contra-lateral TH optical density (FIG. 13b)
Description: (§1) Pharmacological treatments.
Immunohistochemistry: Under deep anesthesia, animals were perfused transcardially with a rinse of saline, followed by 4% formaldehyde fixative (pH 7.4). Brains were removed immediately, stored in the fixative solution overnight and then in 30% sucrose for 3 days. Brains were frozen-sectioned at 16 μm. Immunohistochemical detection of BrdU and Hes3 was performed with an antigen-retrieval step (sections were boiled in 0.02M citrate, pH 6.0 in a microwave for 5 min, washed 3 times with distilled water, and incubated for 45 min in 2M HCl, at room temperature).
(§2) To investigate the clinical potential of this treatment approach, the compounds were used in an animal model of Parkinson's disease. Adult rats were lesioned by intra-striatal 6-OH-DA (Przedborski, S. et al., Neuroscience 67, 631-47, 1995). After two weeks, a single injection of the compounds was administered in the lateral ventricle ipsilateral to the lesion. Amphetamine-induced rotations were measured bi-weekly throughout the experiment. Thirteen weeks after treatment they were given a single injection of fluorogold in the striatum to label the […] dopaminergic projection.
Immunohistochemistry: Under deep anesthesia, animals were perfused transcardially with a rinse of saline, followed by 4% formaldehyde fixative (pH 7.4). […]

STAT3-Ser727 = STAT3-Ser727 phosphorylation in NSC cultures; format: cell-based, mouse
Description: Cell culture: E13.5 cortical embryonic mouse CNS stem cells were grown as previously described (Johe, et al., Genes Dev 10, 3129-40, 1996). Cells were expanded in serum-free DMEM/F12 medium with N2 supplement and FGF2 (20 ng/ml) for 5 days under 5% oxygen conditions and were re-plated fresh or from frozen stocks at 1,000-10,000 cells per cm^2. FGF2 was included throughout the studies, unless otherwise stated. […] Pharmacological treatments: Unless otherwise stated, the following concentrations were used: Dll4 and Ang-2 (in vitro, 500 ng/ml; in vivo 12.5 μg as a single injection), FGF2 (in vitro, 20 ng/ml), JAK inhibitor (in vitro, 200 nM; in vivo, 250 ng as a single injection), insulin (in vitro, 25 μg/ml; in vivo, 40 μg as a single injection), DAPT (1 μM), Fluorogold (0.5 μg). For the survival assays, compounds were added daily and Notch ligands every 2 days for the duration of the experiment. For the effects of kinase inhibitors on Notch activation, cells were pre-incubated for 1 h prior to Notch activation. […] Activation of the Notch receptor by addition of insulin or Dll4 was inhibited by DAPT, a γ-secretase inhibitor that blocks Notch cleavage. […] Insulin maintained STAT[…]727 phosphorylation levels, and acutely (1-h) induced it following a 16-h insulin withdrawal phase (FIG. 1c). […] Fetal NSCs in culture express Ang-1, and treatment (2 days) with Dll4 maintained it whereas CNTF reduced it. Ang-2 expression was maintained under these conditions. […] Ang-2 induced mTOR and STAT3-S727 phosphorylation, unlike Ang-1 (FIG. 2a). Ang-1, however, induced Akt phosphorylation.

6-OHDA lesioned rats = assay: Amphetamine-induced rotometry in the 6OHDA lesion model of Parkinson's disease; format: in vivo, rat; details: for recovery in rotational bias: single intraventricular injection 2 weeks after lesion, measured over next 13 weeks, n=4-7 (FIG. 13a)
Description: as §1, §2

adult mouse SVZ cultures = assay: Survival/generation of adult mouse SVZ NSC cultures (colony and cell number); format: cell-based
Description: (§3) Cell culture: E13.5 cortical embryonic mouse CNS stem cells were grown as previously described (Johe, et al., Genes Dev 10, 3129-40, 1996). Cells were expanded in serum-free DMEM/F12 medium with N2 supplement and FGF2 (20 ng/ml) for 5 days under 5% oxygen conditions and were re-plated fresh or from frozen stocks at 1,000-10,000 cells per cm^2. FGF2 was included throughout the studies, unless otherwise stated. Adult rat (3-6 months old) or adult mouse (2-4 months old) SVZ NSC cultures were grown in the same medium as the fetal cultures.
(§4) Pharmacological treatments: Unless otherwise stated, the following concentrations were used: Dll4 and Ang-2 (in vitro, 500 ng/ml; in vivo 12.5 μg as a single injection), FGF2 (in vitro, 20 ng/ml), JAK inhibitor (in vitro, 200 nM; in vivo, 250 ng as a single injection), insulin (in vitro, 25 μg/ml; in vivo, 40 μg as a single injection), DAPT (1 μM), Fluorogold (0.5 μg). For the survival assays, compounds were added daily and Notch ligands every 2 days for the duration of the experiment. For the effects of kinase inhibitors on Notch activation, cells were pre-incubated for 1 h prior to Notch activation.
Hes3 mRNA is present in fetal NSC cultures under conditions that support their self-renewal but CNTF-induced differentiation (Bonni, A. et al., Science 278, 477-83, 1997; Rajan & McKay, J Neurosci 18, 3620-9, 1998): downregulates Hes3 message (Androutsellis-Theotokis, A. et al., Nature 442, 823-6, 2006). Knockout studies have shown a role of Hes3 in self-renewal (Hatakeyama, J. et al., Development 131, 5539-50, 2004). It was investigated if Hes3 mediates stem cell functions in vitro to assess its use as a functional NSC marker. Fetal (E13.5) cortical tissue was dissociated and magnetic sorting was used to isolate a cell population that expressed AC133, an established marker of NSCs (Uchida, N. et al., Proc Natl Acad Sci USA 97, 14720-5, 2000). Sorted (AC133+) cells expressed Hes3 and Sox2, another established NSC marker (Zappone, M. V. et al., Development 127, 2367-82, 2000). […] To investigate if Hes3 is a mediator of pro-survival signals for NSCs, adult mouse SVZ cultures (which respond strongly to pro-survival signals) were treated with insulin, Dll4, and a combination of the two.

Notch receptor = Notch receptor cleavage (activation) in NSC cultures; format: cell-based, mouse
Description: as §3, §4
It was previously shown that in NSCs Notch activation leads to rapid phosphorylation of Akt (Androutsellis-Theotokis, A. et al., Nature 442, 823-6, 2006), a mediator of insulin signalling (Cantley, Science 296, 1655-7, 2002). […] Activation of the Notch receptor by addition of insulin or Dll4 was inhibited by DAPT, a γ-secretase inhibitor that blocks Notch cleavage. […] Insulin maintained STAT3-Ser727 phosphorylation levels, and acutely (1-h) induced it following a 16-h insulin withdrawal phase (FIG. 1c).

[1] = wild-type adult mouse SVZ cultures

Row | Substance | TH+ signal in the lesioned striatum (TH+ dopaminergic neurons) | STAT3-S727 phosphorylation (STAT3-Ser727; NSC cultures, 0.5 μg/ml (FIG. 2a)) | recovery in rotational bias (6-OHDA lesioned rats) | colony number and overall cell number (adult mouse SVZ cultures; cells from Hes3 null mice) | colony number and overall cell number (adult mouse SVZ cultures; [1]) | amphetamine-induced rotations (behavioural recovery) (6-OHDA lesioned rats; single intra-ventricular injection 2 weeks after 6-OHDA lesion (FIG. 6a)) | Notch activation (Notch receptor; acute (1 h) treatment after insulin withdrawal for 2 days) | cleavage (activation) of the Notch receptor (Notch receptor; treatment of NSC cultures) | STAT3-Ser727 phosphorylation (STAT3-Ser727; acute (1-h) addition following a 16-h insulin withdrawal) | STAT3-Ser727 phosphorylation levels (STAT3-Ser727; continued presence in NSC culture)
1 | Ang-2: human angiopoietin-2 (623-AN) from R&D; antagonist for angiopoietin-1 at Tie2 | increase | induced | complete and stable recovery | – | – | – | – | – | – | –
2 | Dll4: Notch ligand Delta-like 4; mouse Dll4 (1389-D4) from R&D | increase | – | partial recovery | moderate (but significant) benefits | great increase | long-lasting behavioural recovery | – | – | – | –
3 | insulin: insulin (Sigma, 19278), growth factor | – | – | – | moderate (but significant) benefits | great increase | – | induced Notch activation | induced cleavage | induced | maintained
